Legend:
[1] = tested on: human neutrophils (azurophilic granule marker CD63); assay: Flow cytometry of azurophilic granule mobilization (CD63) in human neutrophils; format: cell-based; conditions: Homo sapiens, Neutrophil, 1 hour, GM-CSF + fMLP, N=15 donors, FIG. 4, read-out: Mean % inhibition of CD63 up-regulation
Text: (§1) Human neutrophils were isolated from normal donor's blood by Ficoll density centrifugation, as described previously (23). Murine bone marrow-derived neutrophils were isolated using a Percoll gradient fractionation system as described (24). A three-layer Percoll gradient was used (52%, 64%, and 72%), and neutrophils were isolated from the 64-72% interface, washed, and used in the assays.
(§2) Method: The up-regulation of granule membrane-associated neutrophil markers at the plasma membrane was analyzed by flow cytometry. In these studies, flow cytometry analysis was performed by resuspension of 1×10^6 human neutrophils in phenol red-free RPMI 1640 medium, treated with a 10 μM solution of Inhibitors C1, C2, C4, C5, and C6 and Nexinhib 20 (C20) or DMSO control for 1 hour, and stimulated with physiological agonists GM-CSF (10 ng/ml) for 30 min followed by the addition of fMLP (1 μM) to induce degranulation or left untreated at 37 °C (non-stimulated, NS). The reactions were stopped by transferring the samples to ice and immediately spinning down the cells to initiate blocking and staining. To analyze the plasma membrane expression of plasma membrane markers, the cells were blocked in ice-cold PBS containing 1% BSA and stained with phycoerythrin (PE)-, FITC-, or Alexa647-conjugated anti-human CD63, CD66b, MMP9, and CD11b antibodies that detect extracellular epitopes of these markers. The cells were then washed and fixed in 1% paraformaldehyde in PBS. Samples were analyzed using a NovoCyte flow cytometer, and the data were processed using FlowJo software.

[2] = tested on: human neutrophils (Gelatinase granule cargo MMP9); assay: Flow cytometry of gelatinase granule exocytosis (MMP9) in human neutrophils; format: cell-based; conditions: 1 hour, GM-CSF + fMLP
Text: as §1, §2

[3] = tested on: neutrophils that carry the NLRP3 A350V mutation; assay: Secretion by bone-marrow-derived neutrophils from Nlrp3 A350V (CAPS) mice; format: cell-based, mouse; conditions: 10 μM, 1 hour, LPS and fMLF
Text: FIG. 8A-C. […] A, gelatinase (MMP9) granules; B, azurophilic granules (MPO, myeloperoxidase); C, CD63 (an endolysosomal marker). […] Subsequently, neutrophils were either stimulated with lipopolisacharide (LPS) and the chemotatctic peptide fMLF or left untreated. C20 (Nexinhib20 is used as control). Mean±SEM, n=3. In this and subsequent figures, p<0.05; **, p<0.01; ***, p<0.001; ****, p<0.0001, ANOVA.
These compounds are now tested using neutrophils from a mouse model of Cryopyrin-Associated Periodic Syndrome (CAPS), a systemic inflammatory disease in humans, caused by gain-of-function mutations of the NOD-like receptor family member, cryopirin, also known as NLRP3 (J Cin Immunol 39, 277-286, doi:10.1007/s10875-019-00638-z (2019)). Heterozygous NLRP3 mutations lead to hyper-responsive NLRP3 inflammasome function characterized by increased caspase-1 (Casp1) activation and […], and is observed in patients and in animal models with NLRP3-gain-of-function mutations. […] Subsequently, neutrophils were either stimulated with LPS and the chemotatctic peptide fMLF or left untreated.

[4] = tested on: human neutrophils (specific granule marker CD66b); assay: Flow cytometry of specific granule exocytosis (CD66b) in human neutrophils; format: cell-based; conditions: 1 hour, GM-CSF + fMLP
Text: as §1, §2

wild-type neutrophils = assay: Secretion by wild-type neutrophils; format: cell-based
[5] = tested on: Nlrp3^A350V cre ERT2 mice; assay: Nlrp3 A350V cre ERT2 mouse model of cryopyrin-associated periodic syndrome (CAPS); format: in vivo; conditions: 30 mg/Kg i.p.; for Number of leukocytes and leukocyte subtypes: 7 or 13 days, FIG. 9B; for Activation of circulating neutrophils (CD63 upregulation): FIG. 9D; for Neutrophilic infiltration into the kidney (total MMP9 and MPO levels): tissues day 13, FIG. 9F
Procedure: […] cre ERT2 and control mice were injected i.p. with 50 mg/kg tamoxifen followed by C6 (30 mg/Kg) or vehicle as described. B) Total leukocytes numbers and subtypes were not affected. C) Animals suffer weight loss with disease progression. D) The activation of circulating neutrophils is attenuated by C6. E, The percentage of immature (pro-inflammatory, Ly6G-) neutrophils in circulation (blood) in Nlrp3^A350V is attenuated by treatment with C6 (4.29%) as compared to vehicle (11.0%). […] F, The protection was specific for kidneys.
In this model, disease is caused by the Nlrp3^A350V mutations. The Nlrp3^A350V inducible mouse model (MWS CreT) is homologous to humans suffering from CAPS with the Muckle-Wells A352V mutation in the NLRP3 gene. The tamoxifen inducible Nrp3^A350V cre ERT2 and control animals were injected (i.p.) with 50 mg/kg tamoxifen free base to induce disease (J Immunol 189, 2707-2711, doi:10.4049/jimmunol.1101737 (2012)). The mice (6-12 weeks old) had access to food and water ad libitum. All animal studies were performed in compliance with the U.S. Department of Health and Human Services Guide for the Care and Use of Laboratory Animals and according to NIH and institutional guidelines. All animal protocols and procedures were approved by the University of California San Diego Institutional Animal Care and Use Committees (IACUC). Mice were treated with the neutrophil specific inhibitor NEIa-C6 or vehicle (5% DMSO in PBS). In this model, NLRP3^A350V disease develops progressively in 15 days after first induction with tamoxifen. Between day 0 and day 5 mice were injected (i.p) every other day with tamoxifen followed by NEIa-C6 (30 mg/Kg) or vehicle. Next, administration of NEIa-C6 or vehicle continued until day 13, in the absence of tamoxifen. Blood samples were obtained at day 7 and blood and tissues harvested at day 13. […] The effect was specific for kidneys as lung and liver infiltration was unaffected (FIG. 9G).

CCN(CC)CCNC(=O)/C(=C/c1cccc([N+](=O)[O-])c1)n1cncn1 [154 (C6)]
inhibition at 10 µM [1]: 58.1%
Inhibition in MMP9 experiment (words; printed as CD66b up-regulation) ([2]; 10 μM, relative to DMSO, FIG. 6): marked inhibition of CD66b up-regulation
inhibition at 10 µM ([2]; Homo sapiens, Neutrophil, N=12 donors, FIG. 6, read-out: % Inhibition of MMP9 up-regulation): 54.4%
Mobilization of azurophilic granules (MPO) ([3]; FIG. 8): inhibit the mobilization
Mobilization of gelatinase granules (MMP9) ([3]; FIG. 8): inhibit the mobilization of gelatinase granules (MMP9)
Neutrophil secretion (hyperactivation of secretion) ([3]; Nlrp3 A350V and wild type, FIG. 8A-C): inhibit the hyperactivation of secretion
Mobilization of CD63 ([3]; murine neutrophils, FIG. 8): significantly inhibited the mobilization of CD63
Inhibition of CD66b up-regulation ([4]; 10 μM, relative to DMSO, FIG. 5): reduced the up-regulation of CD66b
inhibition at 10 µM ([4]; Homo sapiens, Neutrophil, N=12 donors, FIG. 5, read-out: % inhibition of CD66b up-regulation): 42.3%
Inhibitory effect on wild-type neutrophils (wild-type neutrophils): selective inhibitory effect on wild-type neutrophils
Number of leukocytes and leukocyte subtypes ([5]; listed as C6): not affected
Number of leukocytes and leukocyte subtypes ([5]; listed as NEIa-C6): did not affect the number of any leukocyte subtype
Neutrophil mediated inflammation in vivo ([5]; FIG. 9): inhibits neutrophil mediated inflammation in vivo
Activation of circulating neutrophils (CD63 upregulation) ([5]; listed as C6): attenuated
Activation of circulating neutrophils (CD63 upregulation) ([5]; listed as NEIa-C6): decreased neutrophil activation in vivo
Lung and liver neutrophilic infiltration ([5]; FIG. 9G): unaffected
Neutrophilic infiltration into the kidney (total MMP9 and MPO levels) ([5]; listed as C6): significantly decreased
Neutrophilic infiltration into the kidney (total MMP9 and MPO levels) ([5]; listed as NEIa-C6): significantly protected kidneys from neutrophilic infiltration
Percentage of immature (pro-inflammatory, Ly6G-) neutrophils in blood ([5]; vehicle 11.0%, FIG. 9E): 4.29%
Weight loss ([5]; vs vehicle, FIG. 9C): partially protected from weight loss
Number of pro-inflammatory immature neutrophils in blood ([5]; vs vehicle, FIG. 9E): decreased the number of pro-inflammatory immature neutrophils in blood

From US20260355189A1, “SMALL MOLECULE INHIBITORS OF NEUTROPHIL EXOCYTOSIS AND INFLAMMATION” (THE SCRIPPS RESEARCH INSTITUTE, priority 2022, published 2026)
